The IC50 is the concentration at which inhibition is half-maximal.

Experiment [1] concerns TF-1 cell. The experiment in a line: TF-1 cell proliferation test. Format: cell-based. As to conditions: Homo sapiens, 72 h. The method, then: Inhibiting test of the compounds of the invention on proliferation of Blast T cell and TF-1 cell (American type culture collection) was carried out by the following method. The tested compounds […], and […] were dissolved in dimethyl sulfoxide from 0.0006 to 10 μM in quadruplicate dilutions. […] The luminescence value was read on Microplate Reader (Molecular Device). […] The IC50 values of the corresponding compounds were then obtained by fitting by using the XLFit fitting tool in excel.

The test system of experiment [2] is Blast T cell. Briefly: Cell proliferation test of IL-2 stimulated Blast T cell. The note with it: Homo sapiens; IL-2 stimulated Blast T cell proliferation, 72 hours. Format: cell-based. How it is done:
Inhibiting test of the compounds of the invention on proliferation of Blast T cell and TF-1 cell (American type culture collection) was carried out by the following method. The tested compounds […], and […] were dissolved in dimethyl sulfoxide from 0.0006 to 10 μM in quadruplicate dilutions. […] 10 μg/ml […] was added to stimulate and obtain cells with a density of 2×10^6/mL, which were incubated for 3 days. The cells were washed with phosphate buffer for three times and IL-2 (100 u/ml) was added to stimulate for 1 week. Cells were suspended using the culture medium and seeded at 5×10^4 cell/well density into 96-well plates, and incubated for 1 h with the prepared test compound or DMSO control at various concentrations from 0.0006 to 10 μM diluted by 4-fold volume. After incubation with 20 u/ml of IL-2 (50 μl/well without reference well) for 72 hours, Celltiter Glo® reagent (Promega, G7571) was added and mixed for 5 minutes, then incubated for 30 minutes at room temperature. The luminescence value was read on SpectraMax L (Molecular Device). […] The IC50 values of the corresponding compounds were then obtained by fitting by using the XLFit fitting tool in excel.

The target of experiment [3] is JAK1 (Homo sapiens (Human), UniProt P23458). The experiment in a line: JAK1 LANCE Ultra kinase assay. Format: biochemical. The note with it: for IC50: 38 uM ATP; for JAK2/JAK1: ratio of IC50 JAK2 to IC50 JAK1. The gist of the method: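 JAK1 preincubated with compound 10 min at room temperature, then ULight-JAK-1 peptide/ATP added for 90 min at room temperature; stopped with EDTA, Eu-W1024 anti-phosphotyrosine TR-FRET read after 60 min. Inhibition normalised to DMSO and blank wells; IC50 from curve fit.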
Chain of JAK1 (P23458 whole entry): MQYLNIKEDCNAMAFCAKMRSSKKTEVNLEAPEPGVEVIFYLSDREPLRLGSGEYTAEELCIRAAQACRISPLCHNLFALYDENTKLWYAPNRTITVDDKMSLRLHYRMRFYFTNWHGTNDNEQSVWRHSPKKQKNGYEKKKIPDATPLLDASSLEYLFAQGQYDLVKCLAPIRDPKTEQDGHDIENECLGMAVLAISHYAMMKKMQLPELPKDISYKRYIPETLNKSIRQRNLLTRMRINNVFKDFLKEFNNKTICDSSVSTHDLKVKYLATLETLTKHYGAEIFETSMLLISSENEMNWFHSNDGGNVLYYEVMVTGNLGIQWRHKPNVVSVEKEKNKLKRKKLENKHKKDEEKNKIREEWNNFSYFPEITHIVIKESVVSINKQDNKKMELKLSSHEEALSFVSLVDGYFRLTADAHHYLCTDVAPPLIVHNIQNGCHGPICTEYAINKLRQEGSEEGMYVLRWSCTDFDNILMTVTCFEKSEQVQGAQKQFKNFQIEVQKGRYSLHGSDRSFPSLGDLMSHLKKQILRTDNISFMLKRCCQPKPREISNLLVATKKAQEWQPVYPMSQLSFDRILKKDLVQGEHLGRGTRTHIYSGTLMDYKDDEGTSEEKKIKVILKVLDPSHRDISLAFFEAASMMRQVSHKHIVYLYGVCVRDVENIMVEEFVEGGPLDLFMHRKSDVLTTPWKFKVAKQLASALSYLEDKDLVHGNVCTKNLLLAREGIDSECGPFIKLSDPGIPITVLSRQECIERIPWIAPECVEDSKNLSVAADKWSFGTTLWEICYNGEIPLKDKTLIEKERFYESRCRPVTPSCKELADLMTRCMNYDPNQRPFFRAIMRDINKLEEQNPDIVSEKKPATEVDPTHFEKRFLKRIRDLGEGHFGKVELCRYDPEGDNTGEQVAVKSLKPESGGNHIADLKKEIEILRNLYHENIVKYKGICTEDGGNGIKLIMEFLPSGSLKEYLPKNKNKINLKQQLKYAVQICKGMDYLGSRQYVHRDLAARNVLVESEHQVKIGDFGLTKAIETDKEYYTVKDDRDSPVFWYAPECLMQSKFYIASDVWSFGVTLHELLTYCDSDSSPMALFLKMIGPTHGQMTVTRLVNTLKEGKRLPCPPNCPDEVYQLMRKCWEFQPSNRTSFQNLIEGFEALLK

The target of experiment [4] is JAK2 (Homo sapiens (Human), UniProt O60674). The experiment in a line: JAK2 LANCE Ultra kinase assay. Format: biochemical. As to conditions: 12 uM ATP.
Chain of JAK2 (O60674 whole entry): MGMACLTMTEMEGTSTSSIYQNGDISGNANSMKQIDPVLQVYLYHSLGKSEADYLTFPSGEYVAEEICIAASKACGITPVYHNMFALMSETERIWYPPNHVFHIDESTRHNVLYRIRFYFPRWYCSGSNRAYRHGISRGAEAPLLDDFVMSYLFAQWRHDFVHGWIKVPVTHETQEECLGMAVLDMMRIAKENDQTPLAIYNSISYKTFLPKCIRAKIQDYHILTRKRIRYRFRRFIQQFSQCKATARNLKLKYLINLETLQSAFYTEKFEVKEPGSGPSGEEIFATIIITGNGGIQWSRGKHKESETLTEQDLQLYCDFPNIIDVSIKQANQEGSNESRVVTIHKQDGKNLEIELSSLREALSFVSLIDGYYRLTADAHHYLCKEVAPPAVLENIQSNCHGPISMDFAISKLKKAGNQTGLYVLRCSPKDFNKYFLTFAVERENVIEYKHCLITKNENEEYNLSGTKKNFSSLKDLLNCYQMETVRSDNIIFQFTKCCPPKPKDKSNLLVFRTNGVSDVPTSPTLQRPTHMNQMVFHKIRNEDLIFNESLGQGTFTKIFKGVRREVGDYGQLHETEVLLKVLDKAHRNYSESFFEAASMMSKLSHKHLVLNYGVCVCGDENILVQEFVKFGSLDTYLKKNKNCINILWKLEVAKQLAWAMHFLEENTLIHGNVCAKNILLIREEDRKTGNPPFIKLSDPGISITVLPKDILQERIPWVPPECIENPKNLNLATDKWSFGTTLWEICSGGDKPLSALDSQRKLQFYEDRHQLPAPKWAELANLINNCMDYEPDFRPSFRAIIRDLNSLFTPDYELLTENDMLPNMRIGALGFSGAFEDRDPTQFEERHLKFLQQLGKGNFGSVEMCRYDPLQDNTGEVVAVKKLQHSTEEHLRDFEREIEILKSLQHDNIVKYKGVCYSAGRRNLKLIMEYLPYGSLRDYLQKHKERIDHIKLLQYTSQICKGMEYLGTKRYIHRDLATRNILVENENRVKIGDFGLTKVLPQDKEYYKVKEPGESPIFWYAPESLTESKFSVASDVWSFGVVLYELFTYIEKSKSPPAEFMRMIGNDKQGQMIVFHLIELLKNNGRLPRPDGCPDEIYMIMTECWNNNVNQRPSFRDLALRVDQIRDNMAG
The target of experiment [5] is JAK3 (Homo sapiens (Human), UniProt P52333). Briefly: JAK3 LANCE Ultra kinase assay. The note with it: 4 uM ATP. It counts as biochemical.
Chain of JAK3 (P52333 whole entry): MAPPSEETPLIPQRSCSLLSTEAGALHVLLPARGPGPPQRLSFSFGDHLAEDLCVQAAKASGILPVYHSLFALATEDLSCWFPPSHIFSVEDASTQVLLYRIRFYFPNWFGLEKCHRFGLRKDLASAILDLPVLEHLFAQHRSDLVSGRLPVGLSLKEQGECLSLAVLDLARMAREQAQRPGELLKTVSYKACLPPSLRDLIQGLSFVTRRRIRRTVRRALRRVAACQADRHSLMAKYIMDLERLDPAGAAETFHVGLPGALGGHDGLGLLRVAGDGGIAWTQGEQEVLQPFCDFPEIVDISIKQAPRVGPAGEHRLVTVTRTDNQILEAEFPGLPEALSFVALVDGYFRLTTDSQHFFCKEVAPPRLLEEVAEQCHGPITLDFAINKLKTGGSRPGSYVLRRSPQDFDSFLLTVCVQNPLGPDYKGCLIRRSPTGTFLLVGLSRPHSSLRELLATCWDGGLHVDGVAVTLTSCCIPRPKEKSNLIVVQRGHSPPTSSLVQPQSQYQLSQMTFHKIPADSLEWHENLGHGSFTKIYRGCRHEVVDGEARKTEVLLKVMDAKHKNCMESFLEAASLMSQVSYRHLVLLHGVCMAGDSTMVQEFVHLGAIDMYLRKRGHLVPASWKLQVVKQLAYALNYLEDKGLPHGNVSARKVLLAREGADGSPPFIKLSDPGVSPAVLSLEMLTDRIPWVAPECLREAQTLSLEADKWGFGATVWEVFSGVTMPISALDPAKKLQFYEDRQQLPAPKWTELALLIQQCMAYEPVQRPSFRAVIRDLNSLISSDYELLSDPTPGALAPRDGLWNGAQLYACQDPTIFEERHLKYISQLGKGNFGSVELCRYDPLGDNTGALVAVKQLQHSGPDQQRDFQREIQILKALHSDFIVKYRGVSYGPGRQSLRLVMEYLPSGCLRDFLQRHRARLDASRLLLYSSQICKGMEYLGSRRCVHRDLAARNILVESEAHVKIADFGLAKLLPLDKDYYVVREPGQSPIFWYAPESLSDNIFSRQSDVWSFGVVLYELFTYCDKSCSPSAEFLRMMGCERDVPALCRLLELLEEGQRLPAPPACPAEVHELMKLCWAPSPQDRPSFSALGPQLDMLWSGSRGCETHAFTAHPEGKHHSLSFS

On to `CC[C@@H]1CN(C(=O)CC(F)(F)F)C[C@@H]1N(C)c1c(C#N)cnc2[nH]ccc12` (relative stereo) [Compound H03, (cis)-4-{[4-ethyl-1-(3,3,3-trifluoropropionyl)pyrrolidin-3-yl]-methyl-amino}-1H-pyrrolo[2,3-b]pyridin-5-carbonitrile], for which the IC50 in experiment [1] is 0.76 µM; in experiment [2], 0.027 µM; in experiment [3], 2.86 nM; in experiment [4], 22 nM; in experiment [5], 133 nM. Moreover, in experiment [3], the JAK2/JAK1 was 7.69.

With `CC[C@@H]1CN(C(=O)NC(C)C(C)C)C[C@@H]1Nc1c(C#N)cnc2[nH]ccc12` (relative stereo) [Compound H85, (cis)-3-((5-cyano-1H-pyrrolo[2,3-b]pyridin-4-yl)amino)-4-ethyl-N-(3-methylbutane-2-yl) pyrrolidin-1-carboxamide], the IC50 stood at 1.47 µM in experiment [1]; 0.032 µM in experiment [2]; 5.47 nM in experiment [3]; 15.7 nM in experiment [4]; 48 nM in experiment [5]. The JAK2/JAK1 in experiment [3] turned out to be 2.86.

As for `CC[C@@H]1CN(C(=O)NCC(F)(F)F)C[C@@H]1Nc1c(C(F)(F)F)cnc2[nH]ccc12` (relative stereo) [Compound H92, (cis)-3-ethyl-N-(2,2,2-trifluoroethyl)-4-((5-(trifluoromethyl)-1H-pyrrolo[2,3-b]pyridin-4-yl)amino)pyrrolidin-1-carboxamide], the IC50 amounted to 0.91 µM in experiment [1]; 0.027 µM in experiment [2]; 8.21 nM in experiment [3]; 14.9 nM in experiment [4]; 258 nM in experiment [5]. For the same compound, the JAK2/JAK1 in experiment [3] is recorded as 1.81.

As to `CCc1nsc(NC(=O)N2C[C@H]3C[C@H](N(C)c4c(C#N)cnc5[nH]ccc45)C[C@H]3C2)n1` [Compound H08, (3aR,5s,6aS)-4-({2-[(3-ethyl-1,2,4-thiadiazole-5-yl)carbamoyl]-hexahydrocyclopenta[c]pyrrole-5-yl}-methyl-amino)-1H-pyrrolo[2,3-b]pyridin-5-carbonitrile], the IC50 in experiment [1] came to 1.3 µM; in experiment [2] it was 0.026 µM; in experiment [3], 0.39 nM; in experiment [4], 3 nM; in experiment [5], 63 nM. Moreover, in experiment [3], the JAK2/JAK1 turned out to be 7.69.

For `CN(c1c(C#N)cnc2[nH]ccc12)[C@H]1C[C@@H](NS(=O)(=O)c2cccc(C(F)(F)F)c2)C1` [Compound H09, 4-{[3-(3-(trifluoromethyl)benzenesulfonamido)-cyclobutyl-1-yl]-methyl-amino}-1H-pyrrolo[2,3-b]pyridin-5-carbonitrile], the IC50 came to 1.56 µM in experiment [1]; 0.036 µM in experiment [2]; 3.86 nM in experiment [3]; 26.5 nM in experiment [4]; 156 nM in experiment [5].

As for `CN(c1c(C#N)cnc2[nH]ccc12)[C@H]1C[C@@H](NS(=O)(=O)c2cccc3nonc23)C1` [Compound H18, (cis)-4-{[3-(benzo[c][1,2,5]oxadiazole-4-sulfonamido)-cyclobutyl-1-yl]-methyl-amino}-1H-pyrrolo[2,3-b]pyridin-5-carbonitrile], the half-inhibitory concentration (IC50) came out at 1.56 µM in experiment [1]; 0.04 µM in experiment [2]; 0.65 nM in experiment [3]; 5.7 nM in experiment [4]; 40 nM in experiment [5].

As for `CN(c1c(C#N)cnc2[nH]ccc12)[C@H]1C[C@@H]2CN(C(=O)Nc3nc(C4CC4)ns3)C[C@@H]2C1` [Compound H26, (3aR,5s,6aS)-5-((5-cyano-1H-pyrrolo[2,3-b]pyridin-4-yl)(methyl)amino)-N-(3-cyclopropyl-1,2,4-thiadiazole-5-yl)hexahydrocyclopentadiene[c]pyrrole-2(1H)-carboxamide], the 50% inhibitory concentration (IC50) in experiment [1] worked out at 1.98 µM; in experiment [2] it was 0.027 µM; in experiment [3], 2.6 nM; in experiment [4] it was 18 nM; in experiment [5] it was 101 nM. Also, the JAK2/JAK1 in experiment [3] amounted to 6.92.

In the case of `N#Cc1cnc2[nH]ccc2c1NC1CCN(S(=O)(=O)c2cccc(C(F)(F)F)c2)CC1` [Compound H34], the half-inhibitory concentration (IC50) in experiment [1] was 1.54 µM; in experiment [2], 0.044 µM.

`C[C@@H]1CN(C(=O)NCC(F)(F)F)C[C@@H]1Nc1c(C#N)cnc2[nH]ccc12` [Compound H40]: the IC50 was 1.24 µM in experiment [1]; 0.036 µM in experiment [2]; 2.6 nM in experiment [3]; 15.6 nM in experiment [4]; 144 nM in experiment [5]. Also, the JAK2/JAK1 in experiment [3] is 6.00.

For the compound `CNc1nsc(NC(=O)N2C[C@H]3C[C@H](N(C)c4c(C#N)cnc5[nH]ccc45)C[C@H]3C2)n1` [Compound H41, (3aR,5s,6aS)-5-((5-cyano-1H-pyrrolo[2,3-b]pyridin-4-yl)(methyl)amino)-N-(3-(methylamino)-1,2,4-thiadiazole-5-yl)hexahydrocyclopentadiene[c]pyrrole-2(1H)-carboxamide], the IC50 in experiment [1] was 1.64 µM; in experiment [2] it was 0.055 µM.

Consider `COc1noc(NC(=O)N2C[C@H]3C[C@H](N(C)c4c(C#N)cnc5[nH]ccc45)C[C@H]3C2)n1` [Compound H43, (3aR,5s,6aS)-5-((5-cyano-1H-pyrrolo[2,3-b]pyridin-4-yl)(methyl)amino)-N-(3-methoxy-1,2,4-oxadiazole-5-yl)hexahydrocyclopentadiene[c]pyrrole-2(1H)-carboxamide], for which the half-maximal inhibitory concentration (IC50) in experiment [1] amounted to 1.44 µM; in experiment [2], 0.043 µM; in experiment [3] it was 2.4 nM; in experiment [4] it was 20 nM; in experiment [5], 125 nM. Also, the JAK2/JAK1 in experiment [3] worked out at 8.33.

For the compound `COc1nsc(NC(=O)N2C[C@H]3C[C@H](Nc4c(C(F)(F)F)cnc5[nH]ccc45)C[C@H]3C2)n1` [Compound H50, (3aR,5s,6aS)-5-((5-trifluoromethyl-1H-pyrrolo[2,3-b]pyridin-4-yl)amino)-N-(3-methoxy-1,2,4-thiadiazole-5-yl)hexahydrocyclopentadiene[c]pyrrole-2(1H)-carboxamide], the 50% inhibitory concentration (IC50) in experiment [1] came out at 0.85 µM; in experiment [2], 0.034 µM; in experiment [3], 4.65 nM; in experiment [4] it was 33 nM; in experiment [5], 137 nM.

For the compound `CC[C@@H]1CC(NS(=O)(=O)c2cccc3nonc23)C[C@@H]1Nc1c(C#N)cnc2[nH]ccc12` (stereo partly drawn) [Compound H58, N-(3-((5-cyano-1H-pyrrolo[2,3-b]pyridin-4-yl)amino)-4-ethylcyclopentyl)benzo[c][1,2,5] oxadiazole-4-sulfamide], the IC50 in experiment [1] worked out at 0.98 µM; in experiment [2] it was 0.041 µM.

Turning to `CN(c1c(C#N)cnc2[nH]ccc12)[C@H]1CC[C@H](CS(=O)(=O)N2CCC(C)(O)C2)CC1` (stereo partly drawn) [Compound H62], the IC50 in experiment [1] was determined as 1.32 µM; in experiment [2] it was 0.029 µM; in experiment [3] it was 5.8 nM; in experiment [4], 16 nM; in experiment [5] it was 40 nM. Besides, the JAK2/JAK1 in experiment [3] was determined as 2.76.

For the compound `COCCOC1CCCN(S(=O)(=O)C[C@H]2CC[C@@H](N(C)c3c(C#N)cnc4[nH]ccc34)C2)C1` (stereo partly drawn) [Compound H70], the IC50 in experiment [1] was determined as 1.53 µM; in experiment [2], 0.048 µM; in experiment [3] it was 6.7 nM; in experiment [4], 13.9 nM; in experiment [5] it was 47 nM. Besides, the JAK2/JAK1 in experiment [3] came out at 2.07.

The values above are taken from patent US12398141B2 (SHANGHAI SYNERGY PHARMACEUTICAL SCIENCES CO., LTD, priority 2019, dated 2025).
